Measured values: patent publication US10076519B2 (CYTOKINETICS, INC., priority 2010, dated 2018)

Test system: rabbit skeletal myofibrils (fast skeletal myofibrils)
Assay: Activation of fast skeletal myofibrils (PUMA assay, PK/LDH-coupled ATPase at pCa25)
Type: biochemical
Summary of the method: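 ATPase activity of Triton-washed rabbit skeletal myofibrils, roughly 90% fast fibres, tracked by NADH loss at 340 nm through a PK/LDH-coupled ADP-regenerating system. Calcium set to 25% of maximal activity (pCa25), in PIPES 12 mM pH 6.8 with 2 mM MgCl2 and 1 mM DTT; AC1.4 reported.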

[1] = AC1.4 determined according to the procedure of Example 39, reported as class symbols
[2] = median AC1.4 class, procedure of Example 39
[3] = median AC1.4 reported as class, procedure of Example 39

Structure (SMILES)	Mean AC1.4 [1]	Mean AC1.4 [3]	further results
Nc1cccc(-c2ccc(NCC3(c4ncccc4F)CCC3)nn2)c1 [[6-(3-aminophenyl)pyridazin-3-yl]{[(3-fluoro(2-pyridyl))cyclobutyl]methyl}amine]	A (A=<1 uM)	–	–
Fc1cccnc1C1(CNc2ccc(-c3ncccc3Cl)nn2)CCC1 [[6-(3-chloro(2-pyridyl))pyridazin-3-yl]{[(3-fluoro(2-pyridyl))cyclobutyl]methyl}amine]	–	–	Mean AC1.4 [2]: C (C=10-20 uM)
CC(C)(CNc1ccc(-c2cccc(Cl)c2)nn1)c1ccc(F)cc1 [[6-(3-chlorophenyl)pyridazin-3-yl][2-(4-fluorophenyl)-2-methylpropyl]amine]	A (A=<1 uM)	–	–
CCc1n[nH]c2ccc(-c3ccc(NCC(C)(C)c4ccc(F)cc4)nn3)cc12 [[6-(3-ethyl(1H-indazol-5-yl))pyridazin-3-yl][2-(4-fluorophenyl)-2-methylpropyl]amine]	B (B=1-10 uM)	–	–
Fc1ccc(C2(Nc3ccc(-c4ccncc4F)nn3)CCC2)cc1 [[6-(3-fluoro(4-pyridyl))pyridazin-3-yl][(4-fluorophenyl)cyclobutyl]amine]	–	–	Mean AC1.4 [2]: B (B=1-10 uM)
Nc1ccc(-c2ccc(NCC3(c4ncccc4F)CCC3)nn2)cc1F [[6-(4-amino-3-fluorophenyl)pyridazin-3-yl]{[(3-fluoro(2-pyridyl))cyclobutyl]meth-yl}amine]	A (A=<1 uM)	–	–
CC(C)(CNc1ccc(-c2ccc(N)cc2)nn1)c1ccc(F)cc1 [[6-(4-aminophenyl)pyridazin-3-yl][2-(4-fluorophenyl)-2-methylpropyl]amine]	A (A=<1 uM)	–	–
Nc1ccc(-c2ccc(NCC3(c4ncccc4F)CCC3)nn2)cc1 [[6-(4-aminophenyl)pyridazin-3-yl]{[(3-fluoro(2-pyridyl))cyclobutyl]methyl}amine]	A (A=<1 uM)	–	–
CC(C)(CNc1ccc(-c2ccc(Cl)cc2)nn1)c1ccc(F)cc1 [[6-(4-chlorophenyl)pyridazin-3-yl][2-(4-fluorophenyl)-2-methylpropyl]amine]	B (B=1-10 uM)	–	–
Fc1cccnc1C1(CNc2ccc(-c3ncc(-c4nn[nH]n4)s3)nn2)CCC1 [[6-(5-(2H-1,2,3,4-tetraazol-5-yl)(1,3-thiazol-2-yl))pyridazin-3-yl]{[(3-fluoro(2-pyridyl))cyclobutyl]methyl}amine]	–	–	Mean AC1.4 [2]: B (B=1-10 uM)
Nc1ccc2nc(-c3ccc(NCC4(c5ncccc5F)CCC4)nn3)sc2n1 [[6-(5-amino(1,3-thiazolino[5,4-b]pyridin-2-yl))pyridazin-3-yl]{[(3-fluoro(2-pyridyl))cyclobutyl]methyl}amine]	–	–	Mean AC1.4 [2]: B (B=1-10 uM)
Nc1ccc(-c2ccc(NCC3(c4ncccc4F)CCC3)nn2)nc1 [[6-(5-amino(2-pyridyl))pyridazin-3-yl]{[(3-fluoro(2-pyridyl))cyclobutyl]methyl}amine]	A (A=<1 uM)	–	–
CC(C)(CNc1ccc(-c2cc(N)[nH]n2)nn1)c1ccc(F)cc1 [[6-(5-aminopyrazol-3-yl)pyridazin-3-yl][2-(4-fluorophenyl)-2-methylpropyl]amine]	B (B=1-10 uM)	–	–
Fc1cccnc1C1(CNc2ccc(-c3nc4ccc(Cl)nc4s3)nn2)CCC1 [[6-(5-chloro(1,3-thiazolino[5,4-b]pyridin-2-yl))pyridazin-3-yl]{[(3-fluoro(2-pyridyl))cyclobutyl]methyl}amine]	–	–	Mean AC1.4 [2]: C (C=10-20 uM)
CC(C)(CNc1ccc(-c2cccc(N)n2)nn1)c1ccc(F)cc1 [[6-(6-amino(2-pyridyl))pyridazin-3-yl][2-(4-fluorophenyl)-2-methylpropyl]amine]	B (B=1-10 uM)	–	–
CC(C)(CNc1ccc(-c2ccc(N)nc2)nn1)c1ccc(F)cc1 [[6-(6-amino(3-pyridyl))pyridazin-3-yl][2-(4-fluorophenyl)-2-methylpropyl]amine]	A (A=<1 uM)	–	–
Nc1ccc(-c2ccc(NC[C@]3(c4ncccc4F)C[C@H](F)C3)nn2)cn1 [[6-(6-amino(3-pyridyl))pyridazin-3-yl]{[3-fluoro-1-(3-fluoro(2-pyridyl))cyclobutyl]methyl}amine]	–	A (A=<1 uM)	–
Nc1ccc(-c2ccc(NCC3(c4ncccc4F)CCC3)nn2)cn1 [[6-(6-amino(3-pyridyl))pyridazin-3-yl]{[(3-fluoro(2-pyridyl))cyclobutyl]methyl}amine]	A (A=<1 uM)	–	–
NC1CCc2nc(-c3ccc(NCC4(c5ncccc5F)CCC4)nn3)sc2C1 (stereo not drawn) [[6-(6-amino(4,5,6,7-tetrahydrobenzothiazol-2-yl))pyridazin-3-yl]{[(3-fluoro(2-pyridyl))cyclobutyl]methyl}amine]	–	D (D=>20 uM)	–
Nc1ncc(-c2ccc(NCC3(c4ncccc4F)CCC3)nn2)cc1F [[6-(6-amino-5-fluoro(3-pyridyl))pyridazin-3-yl]{[(3-fluoro(2-pyridyl))cyclobutyl]methyl}amine]	–	–	Mean AC1.4 [2]: A (A=<1 uM)
Cc1cc(-c2ccc(NC[C@]3(c4ncccc4F)C[C@H](F)C3)nn2)cnc1N [[6-(6-amino-5-methyl(3-pyridyl))pyridazin-3-yl]{[3-fluoro-1-(3-fluoro(2-pyridyl))cyclobutyl]methyl}amine]	–	B (B=1-10 uM)	–
Fc1cc2[nH]ncc2cc1-c1ccc(NC2(c3ncccc3F)CCC2)nn1 [[6-(6-fluoro(1H-indazol-5-yl))pyridazin-3-yl][(3-fluoro(2-pyridyl))cyclobutyl]amine]	–	–	Mean AC1.4 [2]: B (B=1-10 uM)
CN(C)C(=O)c1ccc(NCC2(c3ncccc3F)CCC2)nn1 [[6-({[(3-fluoro(2-pyridyl))cyclobutyl]methyl}ami-no)pyridazin-3-yl]-N,N-dimethylcarboxamide]	–	D (D=>20 uM)	–
O=C(Nc1nncs1)c1ccc(NCC2(c3ncccc3F)CCC2)nn1 [[6-({[(3-fluoro(2-pyridyl))cyclobutyl]methyl}ami-no)pyridazin-3-yl]-N-(1,3,4-thiadiazol-2-yl)carboxamide]	–	B (B=1-10 uM)	–
O=C(Nc1ncco1)c1ccc(NCC2(c3ncccc3F)CCC2)nn1 [[6-({[(3-fluoro(2-pyridyl))cyclobutyl]methyl}ami-no)pyridazin-3-yl]-N-(1,3-oxazol-2-yl)carboxamide]	–	D (D=>20 uM)	–
O=C(Nc1nccs1)c1ccc(NCC2(c3ncccc3F)CCC2)nn1 [[6-({[(3-fluoro(2-pyridyl))cyclobutyl]methyl}ami-no)pyridazin-3-yl]-N-(1,3-thiazol-2-yl)carboxamide]	–	A (A=<1 uM)	–
O=C(NCc1nccs1)c1ccc(NCC2(c3ncccc3F)CCC2)nn1 [[6-({[(3-fluoro(2-pyridyl))cyclobutyl]methyl}ami-no)pyridazin-3-yl]-N-(1,3-thiazol-2-ylmethyl)carboxamide]	–	D (D=>20 uM)	–
Cn1ccc(NC(=O)c2ccc(NCC3(c4ncccc4F)CCC3)nn2)n1 [[6-({[(3-fluoro(2-pyridyl))cyclobutyl]methyl}ami-no)pyridazin-3-yl]-N-(1-methylpyrazol-3-yl)carboxamide]	–	C (C=10-20 uM)	–
O=C(NC1CCCNC1=O)c1ccc(NCC2(c3ncccc3F)CCC2)nn1 (stereo not drawn) [[6-({[(3-fluoro(2-pyridyl))cyclobutyl]methyl}ami-no)pyridazin-3-yl]-N-(2-oxo(3-piperidyl))carboxamide]	–	D (D=>20 uM)	–
O=C(NCc1ccccn1)c1ccc(NCC2(c3ncccc3F)CCC2)nn1 [[6-({[(3-fluoro(2-pyridyl))cyclobutyl]methyl}ami-no)pyridazin-3-yl]-N-(2-pyridylmethyl)carboxamide]	–	D (D=>20 uM)	–
